Values joined by “and” are separate entries in the source; they are usually repeats but may differ in a detail not shown here. Identical values can stand only once. Like-named read-outs stand apart in the source and are kept apart here.
Legend:
[1] = set-up: method as in Kverme et al. (2019); conditions: 34‰, SO‐FA, 10 mg/kg fish, 114 g, 12 °C; ref Kverme et al. (2019); cited from earlier work
[2] = set-up: method as in Table 4; conditions: after dietary delivery, different environmental conditions; ref Table 4; cited from earlier work
[3] = cited from earlier work; for Primary route of excretion of FLO and its metabolites: single oral dose 10 mg/kg fish, ref Feng et al. (2008)
[4] = cited from earlier work
[5] = Plasma pharmacokinetics of FLO after a single dietary administration
Description: Apparently healthy European seabass averaging about 100 ± 12 g were obtained from a local fish farm (Selonda aquaculture S.A) and distributed in two cages (1 m^3) located within a 50 m^3 cement tank (85 fish/cage). Water was supplied by open flow and oxygen was provided continuously by bubbling air. The water temperature and salinity were 24 ± 1°C and 38‰, respectively. Fish were allowed to acclimate for 7 days prior to experimentation and fed a drug‐free commercial diet at 1.5% body weight (B.W.).
During the trial, the experimental diet was stored at 4°C and was left to obtain ambient temperature before delivery.
Sampling of fish was performed at predetermined time points during and post treatment (Figure 1) after anesthetization with clove oil (40 mg/L). […] At each sampling point, 10 fish were killed by a blow to the head and tissue samples were obtained. Approximately, 2 ml of blood was drawn with a needle (Microlance 23G 11/4 0.6 × 30; Becton Dickinson, Zaragoza, Spain) from the caudal vein at selected time points during treatment and transferred into heparinised test tubes. Plasma was separated from blood samples by centrifugation at 20,160 g for 10 min at 4°C. Moreover for the withdrawal study, muscle plus skin (approximately 5 g) were taken from the anterior dorsal region on days 1, 2, 3, 4 and 6 post treatment. All prepared tissue samples were immediately frozen and stored at −20°C until analysis.
Briefly, 1 ml of plasma sample was placed in a 10 ml polypropylene centrifuge tube with 500 μl of acetonitrile:water (35:65, v/v). […] The homogenised samples were centrifuged (8,000 g for 10 min) and the supernatant was transferred to a 15 ml polypropylene centrifuge tube. The extraction step was repeated twice. The combined extract was then evaporated to dryness at 40°C under a gentle stream of nitrogen. The residue was reconstituted by 1 ml of mobile phase solution. Five milliliter of hexane were added into the tube and after mixing it was subjected to centrifugation for 5 min at 2,150 g prior to the removal of the hexane layer. The afore‐mentioned de‐fatting step was also repeated twice. The water‐based phase was filtered using 0.22 μm nylon filter and the filtrate (200 μl) was then analysed by HPLC.
The column temperature was maintained at 30°C and the injected volume was 200 μl. As a mobile phase, (A) an aqueous solution of NaH2PO4 (0.01 M) containing 0.005 M sodium dodecyl sulphate and 0.1% triethylamine (pH 4.8 adjusted with 85% phosphoric acid) and (B) acetonitrile were used (A/B, 65:35, v/v). The flow rate was 1.0 ml/min.
The area under the concentration–time curve (AUC0‐∞) was determined using trapezoidal method and was extrapolated to infinity.

[6] = set-up: method as in Kosoff et al. (2009); conditions: 26–30‰, MO, 10 × 10d mg/kg fish, 384–426 g, 20–25 °C; ref Kosoff et al. (2009); cited from earlier work
[7] = set-up: method as in Yanong et al. (2005); conditions: 0‰, SO, 50 mg/kg fish, 19 g, 23–25 °C; ref Yanong et al. (2005); cited from earlier work
[8] = 0‰, cited from earlier work; for WT: MO, 13 °C
[9] = 0‰, SO‐FA, 10 mg/kg fish, 98 g, 22 °C, ref Feng and Jia (2009)
[10] = 0‰, MO, 10 × 10d mg/kg fish, 444–474 g, 25–30 °C, ref Kosoff et al. (2009)
[11] = 0‰, MO, 15 × 10d mg/kg fish, 100–500 g, 25 °C, ref Bowser et al. (2009)
[12] = 0‰, SO‐FA, 15 mg/kg fish, 500–700 g, 24 °C, ref Rairat et al. (2019)
[13] = 0‰, SO‐FA, 15 mg/kg fish, 500–700 g, 28 °C, ref Rairat et al. (2019)
[14] = 0‰, SO‐FA, 15 mg/kg fish, 500–700 g, 28 °C, ref Rairat et al. (2020)
[15] = 0‰, SO‐FA, 15 mg/kg fish, 500–700 g, 32 °C, ref Rairat et al. (2019)
[16] = 2‰, SO‐FA, 15 mg/kg fish, 500–700 g, 28 °C, ref Rairat et al. (2020)
[17] = 4‰, SO‐FA, 15 mg/kg fish, 500–700 g, 28 °C, ref Rairat et al. (2020)
[18] = 8‰, SO‐FA, 15 mg/kg fish, 500–700 g, 28 °C, ref Rairat et al. (2020)
[19] = 15‰, SO‐FA, 15 mg/kg fish, 500–700 g, 28 °C, ref Rairat et al. (2020)
[20] = European seabass (Dicentrarchus labrax), plasma, oral, 10 mg/kg
[21] = SO, 10 mg/kg fish, 140 g, 14–15 °C, ref Pourmolaie et al. (2015)

SMILES: CS(=O)(=O)c1ccc([C@@H](O)[C@@H](CF)NC(=O)C(Cl)Cl)cc1 [FLO, florfenicol]
- C max [1]: 3600 ng/mL
- T max [1]: 21.2 h
- t 1/2b [1]: 21.2 h
- Maximum plasma concentration in other farmed fish species [2]: 1.8 to 55 µg/mL
- C max [3, 9]: 4500 ng/mL
- T max [3, 9]: 12 h
- t 1/2b [3, 9]: 10.0 h
- Primary route of excretion of FLO and its metabolites ([3]; freshwater hybrid tilapia): the bile duct
- Primary route of excretion of FLO and its metabolites ([3]; seawater tilapia): mostly the gills
- C max [4, 10]: 6500 to 6700 ng/mL
- WT [4, 10]: 98 to 146 h
- C max [4, 11]: 7100 to 15200 ng/mL
- WT [4, 11]: >288 h
- t 1/2b [4, 11]: 1.2 to 2.2 h
- C max [4, 12]: 23100 ng/mL
- T max [4, 12]: 1.4 h
- t 1/2b [4, 12]: 12.4 h
- C max [4, 13]: 16700 ng/mL
- T max [4, 13]: 1.2 h
- t 1/2b [4, 13]: 9.5 h
- C max [4, 14]: 24000 ng/mL
- T max [4, 14]: 0.8 h
- t 1/2b [4, 14]: 11.3 h
- C max [4, 15]: 16700 ng/mL
- T max [4, 15]: 0.8 h
- t 1/2b [4, 15]: 7.3 h
- t 1/2b ([4]; 2‰, SO‐FA, 15 mg/kg fish, 500–700 g, 28 °C, ref Rairat et al. (2020), 15 mg/kg): 10.7 h
- C max [4, 16]: 21600 ng/mL
- T max [4, 16]: 0.9 h
- C max [4, 17]: 21800 ng/mL
- T max [4, 17]: 0.9 h
- t 1/2b [4, 17]: 10.6 h
- C max [4, 18]: 24400 ng/mL
- T max [4, 18]: 0.9 h
- t 1/2b [4, 18]: 10.2 h
- t 1/2b ([4]; 15‰, SO‐FA, 15 mg/kg fish, 500–700 g, 28 °C, ref Rairat et al. (2020), 15 mg/kg): 8.9 h
- C max [4, 19]: 22700 ng/mL
- T max [4, 19]: 1.0 h
- Tmax [5, 20]: 4 h
- concentration at 24 hr [5, 20]: 550 ng/mL
- AUC ([5]; European seabass (Dicentrarchus labrax), plasma, po, 10 mg/kg): 34700 ng·h/mL
- half-life ([5]; in vivo, po, 10 mg/kg): 13 h
- AUC ([5]; plasma, po, 10 mg/kg): 34700 ng·h/mL
- Maximum plasma concentration ([5]; single dietary administration 10 mg/kg, plasma, 24°C): 1.6 µg/mL and 1.64 µg/mL
- C max [6]: 1800 to 3500 ng/mL
- WT [6]: 17 to 62 h
- C max [7]: 2600 ng/mL
- T max [7]: 5 h
- WT ([8]; 10 × 10d mg/kg fish, 220 g, ref Di Salvo et al. (2013)): 108 h
- WT ([8]; 15–20 × 10d mg/kg fish, 126–617 g, ref Meinertz et al. (2014)): 360 h
- C max [8, 21]: 6100 ng/mL
- T max [8, 21]: 9 h
